Values of other authors as cited in article PMC4237557 (Diabetes, Obesity & Metabolism, 2014).

Tests used:
[1] = system: insulin-like growth factor 1 receptor (IGF-1R); conditions: in vitro
[2] = in vitro

| Affinity for IGF-1R compared with human insulin [1] | Substance | Mitogenicity compared with endogenous human insulin [2] | Glucose-lowering potency compared with parent glargine (M0) |
| --- | --- | --- | --- |
| lower affinity | 21^A-Gly-human insulin [M1] | does not exhibit an increased affinity for IGF-1R or increased mitogenicity | equal glucose-lowering potency |
| lower affinity | 21^A-Gly-des-30^B-Thr-human insulin [M2] |  |  |
